Values after ≈ are worked out from the molar mass of the structure shown.
The compounds below were run on Clostridium difficile (Isolate ID ATCC 9689) (assay: Bacterial Assay: Determination of Antibacterial Activity (MIC, broth microdilution or agar dilution)). Details: Clostridioides difficile, ATCC9689, 48 h, read-out: C. difficile MIC Activity Range.
Assay type: cell-based
Description: Bacterial Assay: Determination of Antibacterial Activity Compounds of the invention were tested for antimicrobial activity by susceptibility testing in liquid or on solid media. Minimum inhibitory concentrations (MICs) for compounds against each strain were determined by the broth microdilution or agar dilution method according to the guidelines of the Clinical Laboratories and Standards Institute, formerly the National Committee for Clinical Laboratory Standards (Clinical Laboratories and Standards Institute. Methods for Dilution Antimicrobial Susceptibility Tests for Bacteria That Grow Anaerobically; Approved Standard-Seventh Edition. Document M11-A7, CLSI, Wayne, Pa., 2007, Clinical Laboratories and Standards Institute). Briefly MICs were determined by visible inspection after 48 hours of growth in the presence of compounds, cultures were grown at 37° C. in anaerobic gas packs using reinforced clostridial medium supplemented with 0.1% defribrinated horse blood. The bacterial strains tested include C. difficile (Clostridium difficile (Isolate ID ATCC 9689)) (Table 2) and two drug resistant clinical isolates (Clostridium difficile (Isolate ID BI-9) and Clostridium difficile (Isolate ID 027-01) (Table 3).
MICs were determined to be within the activity ranges “A” activity≦1.01 μg/mL; “B” activity>1.0 μg/mL-4.0 μg/mL; “C” activity>4.0 μg/mL-16 μg/mL

`NC(=O)c1c(F)ccc(O[C@H](CO)c2nc(-c3ccc(C(F)(F)F)cc3)c(Br)o2)c1F` (racemic) [Compound 32, 3-(1-{5-bromo-4-[4-(trifluoromethyl)phenyl]-1,3-oxazol-2-yl}-2-hydroxyethoxy)-2,6-difluorobenzamide] and `CC(Oc1ccc(F)c(C(N)=O)c1F)c1nc(-c2ccc(C(F)(F)F)cc2)c(Br)o1` (stereo not shown) [Compound 29, 3-(1-{5-bromo-4-[4-(trifluoromethyl)phenyl]-1,3-oxazol-2-yl}ethoxy)-2,6-difluorobenzamide] cannot be ordered by MIC: < 1.01 µg/mL for the first, < 1.01 µg/mL for the second.

`NC(=O)c1c(F)ccc(OC(COC(=O)Nc2cccnc2)c2nc(-c3ccc(C(F)(F)F)cc3)c(Br)o2)c1F` (racemic) [Compound 64, 2-{5-bromo-4-[4-(trifluoromethyl)phenyl]-1,3-oxazol-2-yl}-2-(3-carbamoyl-2,4-difluorophenoxy)ethyl pyridin-3-ylcarbamate] and `NC(=O)c1c(F)ccc(OC(CNC(=O)c2cccnc2)c2nc(-c3ccc(C(F)(F)F)cc3)c(Br)o2)c1F` (racemic) [Compound 97, N-[2-{5-bromo-4-[4-(trifluoromethyl)phenyl]-1,3-oxazol-2-yl}-2-(3-carbamoyl-2,4-difluorophenoxy)ethyl]pyridine-3-carboxamide] cannot be ordered by MIC: < 1.01 µg/mL for the first, 1 to 4 µg/mL (≈ 1.64 to 6.54 µM) for the second.

`NC(=O)c1c(F)ccc(OC(CNC(=O)OCc2ccccc2)c2nc(-c3ccc(C(F)(F)F)cc3)c(Br)o2)c1F` (racemic) [Compound 93, benzyl [2-{5-bromo-4-[4-(trifluoromethyl)phenyl]-1,3-oxazol-2-yl}-2-(3-carbamoyl-2,4-difluorophenoxy)ethyl]carbamate] and `NC(=O)c1c(F)ccc(OC(CNC(=O)c2ccccc2)c2nc(-c3ccc(C(F)(F)F)cc3)c(Br)o2)c1F` (racemic) [Compound 96, 3-[2-(benzoylamino)-1-{5-bromo-4-[4-(trifluoromethyl)phenyl]-1,3-oxazol-2-yl}ethoxy]-2,6-difluorobenzamide] cannot be ordered by MIC: 1 to 4 µg/mL (≈ 1.56 to 6.25 µM) for the first, < 1.01 µg/mL for the second.

`COC(=O)NCC(Oc1ccc(F)c(C(N)=O)c1F)c1nc(-c2ccc(C(F)(F)F)cc2)c(Br)o1` (racemic) [Compound 94, methyl [2-{5-bromo-4-[4-(trifluoromethyl)phenyl]-1,3-oxazol-2-yl}-2-(3-carbamoyl-2,4-difluorophenoxy)ethyl]carbamate] and `CCNC(=O)NCC(Oc1ccc(F)c(C(N)=O)c1F)c1nc(-c2ccc(C(F)(F)F)cc2)c(Br)o1` (racemic) [Compound 95, 3-(1-{5-bromo-4-[4-(trifluoromethyl)phenyl]-1,3-oxazol-2-yl}-2-[(ethylcarbamoyl)amino]ethoxy)-2,6-difluorobenzamide] cannot be ordered by MIC: 1 to 4 µg/mL (≈ 1.77 to 7.09 µM) for the first, < 1.01 µg/mL for the second.

`NC(=O)c1c(F)ccc(OC(CNC(=O)c2ccccn2)c2nc(-c3ccc(C(F)(F)F)cc3)c(Br)o2)c1F` (racemic) [Compound 98, N-[2-{5-bromo-4-[4-(trifluoromethyl)phenyl]-1,3-oxazol-2-yl}-2-(3-carbamoyl-2,4-difluorophenoxy)ethyl]pyridine-2-carboxamide] and `CC(=O)OCC(Oc1ccc(F)c(C(N)=O)c1F)c1nc(-c2ccc(C(F)(F)F)cc2)c(Br)o1` (stereo not shown) [Compound 31, 2-{5-bromo-4-[4-(trifluoromethyl)phenyl]-1,3-oxazol-2-yl}-2-(3-carbamoyl-2,4-difluorophenoxy)ethyl acetate] cannot be ordered by MIC: 1 to 4 µg/mL (≈ 1.64 to 6.54 µM) for the first, < 1.01 µg/mL for the second.

`NC(=O)c1c(F)ccc(OC(CO)c2nc(-c3ccc(Cl)s3)c(Br)o2)c1F` (racemic) [Compound 101, 3-{1-[5-bromo-4-(5-chlorothiophen-2-yl)-1,3-oxazol-2-yl]-2-hydroxyethoxy}-2,6-difluorobenzamide] and `CCC(Oc1ccc(F)c(C(N)=O)c1F)c1nc(-c2ccc(Cl)cc2)c(Br)o1` (stereo not shown) [Compound 27, 3-{1-[5-bromo-4-(4-chlorophenyl)-1,3-oxazol-2-yl]propoxy}-2,6-difluorobenzamide] fall in the same range of MIC: 1 to 4 µg/mL (≈ 2.08 to 8.34 µM) for the first, 1 to 4 µg/mL (≈ 2.12 to 8.48 µM) for the second.

`CCCCCCCCCOc1ccc(Cl)c(C(N)=O)c1F` [Compound 2, 6-chloro-2-fluoro-3-(nonyloxy)benzamide] and `CCCCCCCCCOc1ccc(F)c(C(N)=O)c1Cl` [Compound 5, 2-chloro-6-fluoro-3-(nonyloxy)benzamide] cannot be ordered by MIC: < 1.01 µg/mL for the first, < 1.01 µg/mL for the second.

`CCCCCC/C=C/COc1ccc(F)c(C(N)=O)c1F` [Compound 3, 2,6-difluoro-3-[(2E)-non-2-en-1-yloxy]benzamide] and `CC/C=C\CCCCCOc1ccc(F)c(C(N)=O)c1F` [Compound 6, 2,6-difluoro-3-[(6Z)-non-6-en-1-yloxy]benzamide] cannot be ordered by MIC: < 1.01 µg/mL for the first, < 1.01 µg/mL for the second.

`CCCCCCOCCOc1ccc(F)c(C(N)=O)c1F` [Compound 4, 2,6-difluoro-3[2-(hexyloxy)ethoxy]benzamide] and `Cc1ccc(-c2nc(CCOc3ccc(F)c(C(N)=O)c3F)c(C)o2)cc1` [Compound 18, 2,6-difluoro-3-{2-[5-methyl-2-(4-methylphenyl)-1,3-oxazol-4-yl]ethoxy}benzamide] fall in the same range of MIC: 1 to 4 µg/mL (≈ 3.32 to 13.3 µM) for the first, 1 to 4 µg/mL (≈ 2.69 to 10.7 µM) for the second.

`NC(=O)c1c(F)ccc(OCc2nc(-c3ccc(Cl)cc3)no2)c1F` [Compound 13, 3-{[3-(4-chlorophenyl)-1,2,4-oxadiazol-5-yl]methoxy}-2,6-difluorobenzamide] and `CC(Oc1ccc(F)c(C(N)=O)c1F)c1nc(-c2ccc(Cl)cc2)ns1` (stereo not shown) [Compound 30, 3-{1-[3-(4-chlorophenyl)-1,2,4-thiadiazol-5-yl]ethoxy}-2,6-difluorobenzamide] cannot be ordered by MIC: 1 to 4 µg/mL (≈ 2.73 to 10.9 µM) for the first, < 1.01 µg/mL for the second.

First: C=CCc1ccc2sc(COc3ccc(F)c(C(N)=O)c3F)nc2c1 [Compound 14, 2,6-difluoro-3-{[5-(prop-2-en-1-yl)-1,3-benzothiazol-2-yl]methoxy}benzamide]
Second: NC(=O)c1c(F)ccc(OCc2nc(-c3ccc(F)cc3)cs2)c1F [Compound 15, 2,6-difluoro-3-{[4-(4-fluorophenyl)-1,3-thiazol-2-yl]methoxy}benzamide]
The MIC of the first is higher: 4 to 16 µg/mL (≈ 11.1 to 44.4 µM) for the first, 1 to 4 µg/mL (≈ 2.74 to 11 µM) for the second.

`COc1ccc(-c2nc(COc3ccc(F)c(C(N)=O)c3F)oc2Br)cc1` [Compound 22, 3-{[5-bromo-4-(4-methoxyphenyl)-1,3-oxazo1-2-yl]methoxy}-2,6-difluorobenzamide] and `COc1ccc(-c2nc(C(C)Oc3ccc(F)c(C(N)=O)c3F)oc2Br)cc1` (stereo not shown) [Compound 24, 3-{1-[5-bromo-4-(4-methoxyphenyl)-1,3-oxazol-2-yl]ethoxy}-2,6-difluorobenzamide] cannot be ordered by MIC: < 1.01 µg/mL for the first, < 1.01 µg/mL for the second.

`COc1ncc(-c2csc(C(C)Oc3ccc(F)c(C(N)=O)c3F)n2)s1` (stereo not shown) [Compound 23, 2,6-difluoro-3-[1-(2′-methoxy-4,5′-bi-1,3-thiazol-2-yl)ethoxy]benzamide] and `NC(=O)c1c(F)ccc(OC(CO)c2nc(-c3ccc(Cl)cc3)cs2)c1F` (stereo not shown) [Compound 25, 3-{1-[4-(4-chlorophenyl)-1,3-thiazol-2-yl]-2-hydroxyethoxy}-2,6-difluorobenzamide] fall in the same range of MIC: 4 to 16 µg/mL (≈ 10.1 to 40.3 µM) for the first, 4 to 16 µg/mL (≈ 9.74 to 38.9 µM) for the second.

`C=CCc1oc(C(C)Oc2ccc(F)c(C(N)=O)c2F)nc1-c1ccc(OC(F)(F)F)cc1` (stereo not shown) [Compound 26, 2,6-difluoro-3-(1-{5-(prop-2-en-1-yl)-4-[4-(trifluoromethoxy)phenyl]-1,3-oxazol-2-yl}ethoxy)benzamide] and `CCCc1oc(C(C)Oc2ccc(F)c(C(N)=O)c2F)nc1-c1ccc(OC(F)(F)F)cc1` (stereo not shown) [Compound 28, 2,6-difluoro-3-(1-{5-propyl-4-[4-(trifluoromethoxy)phenyl]-1,3-oxazol-2-yl}ethoxy)benzamide] fall in the same range of MIC: 4 to 16 µg/mL (≈ 8.54 to 34.2 µM) for the first, 4 to 16 µg/mL (≈ 8.5 to 34 µM) for the second.

`CC(=O)OCC(Oc1ccc(F)c(C(N)=O)c1F)c1nc(-c2ccc(C(F)(F)F)cc2)c(Cl)o1` (stereo not shown) [Compound 34, 2-(3-carbamoyl-2,4-difluorophenoxy)-2-{5-chloro-4-[4-(trifluoromethyl)phenyl]-1,3-oxazol-2-yl}ethyl acetate] and `CNCC(=O)OCC(Oc1ccc(F)c(C(N)=O)c1F)c1nc(-c2ccc(C(F)(F)F)cc2)c(Br)o1` (stereo not shown) [Compound 39, 2-{5-bromo-4-[4-(trifluoromethyl)phenyl]-1,3-oxazol-2-yl}-2-(3-carbamoyl-2,4-difluorophenoxy)ethyl N-methylglycinate] cannot be ordered by MIC: < 1.01 µg/mL for the first, < 1.01 µg/mL for the second.

First: CNCNC(=O)c1c(F)ccc(OC(C)c2nc(-c3ccc(OC(F)(F)F)cc3)c(Cl)o2)c1F (stereo not shown) [Compound 35, 3-(1-{5-chloro-4-[4-(trifluoromethoxy)phenyl]-1,3-oxazol-2-yl}ethoxy)-2,6-difluoro-N-[(methylamino)methyl]benzamide]
Second: CNCC(=O)OCC(Oc1ccc(F)c(C(N)=O)c1F)c1nc(-c2ccc(Cl)cc2)c(Cl)o1 (stereo not shown) [Compound 37, 2-(3-carbamoyl-2,4-difluorophenoxy)-2-[5-chloro-4-(4-chlorophenyl)-1,3-oxazol-2-yl]ethyl N-methylglycinate]
The MIC of the first is lower: < 1.01 µg/mL for the first, 4 to 16 µg/mL (≈ 8 to 32 µM) for the second.

`CN(C)CC(=O)OCC(Oc1ccc(F)c(C(N)=O)c1F)c1nc(-c2ccc(C(F)(F)F)cc2)c(Br)o1` (stereo not shown) [Compound 36, 2-{5-bromo-4-[4-(trifluoromethyl)phenyl]-1,3-oxazol-2-yl}-2-(3-carbamoyl-2,4-difluorophenoxy)ethyl N,N-dimethylglycinate] and `NC(=O)c1c(F)ccc(OC(COC(=O)CN2C(=O)c3ccccc3C2=O)c2nc(-c3ccc(C(F)(F)F)cc3)c(Br)o2)c1F` (stereo not shown) [Compound 38, 2-{5-bromo-4-[4-(trifluoromethyl)phenyl]-1,3-oxazol-2-yl}-2-(3-carbamoyl-2,4-difluorophenoxy)ethyl (1,3-dioxo-1,3-dihydro-2H-isoindo1-2-yl)acetate] cannot be ordered by MIC: < 1.01 µg/mL for the first, < 1.01 µg/mL for the second.

— patent publication US20170305943A1, “COMPOUNDS FOR THE TREATMENT OF BACTERIAL INFECTIONS” (priority 2014, published 2017)
